What was measured:
Format in all cases: biochemical
[1] = target: BIKE (amino acids S38-E345) (K320A, K321A) (Homo sapiens (Human), UniProt Q9NSY1, K320A/K321A); experiment: BIKE pSENs assay
Method: (§1) The recombinant proteins were independently expressed in Esherichia coli BL21(DE3) cells cultured in Luria-Bertani (LB) medium until OD600 reached 0.6-0.8, then cooled to 15° C., and supplemented with 0.5 mM isopropyl 1-thio-D-galactopyranoside (IPTG) induce protein expression 16 h. Cells were harvested and resuspended in lysis buffer (50 mM HEPES pH 7.5, 500 mM NaCl, 5 mM imidazole, 5% glycerol, 0.5 mM Tris (2-carboxyethyl) phosphine (TCEP), cOmplete Protease Inhibitor Tablet (Roche)) and lysed by microfluidics high pressure homogenizer (UH-06, Union-Biotech). Proteins were purified using Ni-Affinity chromatography (His FF column, Bestchrom) and eluted stepwise in binding buffer with 20-300 mM imidazole. Removal of the hexahistidine tag was performed at 4° C. overnight using recombinant TEV protease and reacted with BirA to obtain the corresponding biotinylated-AAK1. BIKE or GAK proteins. Further separated in the reverse Strep column (Strep-Tactin® XT, IBA). The Biotin elution sample was collected containing untagged biotinylated protein was then purified by Ion-exchange chromatography (Mono Q 10/100 GL, Cytiva) and Size-exclusion chromatography (HiLoad 16/600 Superdex 200 pg, Cytiva). The pure protein was stored in a storage buffer 50 mM HEPES (pH 7.5), 300 mM NaCl, 5% glycerol at −80° C. Protein were characterized by SDS-PAGE. LC-MS and aSEC.
BIKE protein was dissolved at 20 nM in 1× enzyme solution (50 mM HEPES pH7.5, 10 mM MgCl2, 1 mM DTT, 1% glycerol, 0.5 mM EGTA, 0.01% Briji35, 0.02% BSA) and 12.5 ul was incubated with 250 nl DMSO or 250 nl compound in DMSO at 25° C. for 15 min. The reaction was started by addition of 12.5 ul of 30 uM AQT0759 (Assayquant, CSKS-AQT0759B) and 40 uM ATP which were diluted in 1× substrate dilution buffer (50 mM HEPES pH7.5, 10 mM MgCl2. 1 mM DTT, 1% glycerol, 0.5 mM EGTA, 0.01% Briji35).

[2] = target: AAK1 (amino acids T27-A365) (Homo sapiens (Human), UniProt Q2M2I8); experiment: AAK1 pSENs assay; conditions: ratio of AAK1 pSENs activity to GAK pSENs activity
Method in brief: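 Untagged, biotinylated E. coli-expressed AAK1 at 20 nM preincubated with compound 15 min at 25° C in HEPES pH 7.5 buffer with 10 mM MgCl2 and 1 mM DTT. Reaction started with AQT0759 and ATP, added as 30 uM and 70 uM solutions in equal volume.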

[3] = target: GAK (amino acids Q25-N335) (Homo sapiens (Human), UniProt O14976); experiment: GAK pSENs assay
Method: as §1
This example describes one illustrative method for determining the IC50 of the compounds of the present invention against GAK (amino acids Q25-N335).

Chain of AAK1 (amino acids T27-A365) (Q2M2I8 27-365): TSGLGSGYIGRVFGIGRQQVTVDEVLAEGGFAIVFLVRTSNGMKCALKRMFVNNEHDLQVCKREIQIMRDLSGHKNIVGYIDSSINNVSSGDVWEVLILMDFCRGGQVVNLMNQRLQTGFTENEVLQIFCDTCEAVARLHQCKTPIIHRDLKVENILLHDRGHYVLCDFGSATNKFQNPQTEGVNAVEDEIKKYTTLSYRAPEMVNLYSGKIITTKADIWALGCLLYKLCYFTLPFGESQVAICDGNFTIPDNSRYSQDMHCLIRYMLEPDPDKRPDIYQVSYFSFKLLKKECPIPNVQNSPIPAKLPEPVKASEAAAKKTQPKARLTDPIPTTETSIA
Chain of GAK (amino acids Q25-N335) (O14976 25-335): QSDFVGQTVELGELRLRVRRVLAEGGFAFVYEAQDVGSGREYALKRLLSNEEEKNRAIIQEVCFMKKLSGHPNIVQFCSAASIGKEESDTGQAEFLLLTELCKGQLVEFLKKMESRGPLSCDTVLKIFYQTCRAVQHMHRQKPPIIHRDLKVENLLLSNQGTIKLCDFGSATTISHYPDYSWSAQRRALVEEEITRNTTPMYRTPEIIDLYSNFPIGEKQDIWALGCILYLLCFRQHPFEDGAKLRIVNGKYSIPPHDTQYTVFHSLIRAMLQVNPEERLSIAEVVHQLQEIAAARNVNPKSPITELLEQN
Chain of BIKE (amino acids S38-E345) (K320A, K321A) (Q9NSY1 38-345 K320A/K321A): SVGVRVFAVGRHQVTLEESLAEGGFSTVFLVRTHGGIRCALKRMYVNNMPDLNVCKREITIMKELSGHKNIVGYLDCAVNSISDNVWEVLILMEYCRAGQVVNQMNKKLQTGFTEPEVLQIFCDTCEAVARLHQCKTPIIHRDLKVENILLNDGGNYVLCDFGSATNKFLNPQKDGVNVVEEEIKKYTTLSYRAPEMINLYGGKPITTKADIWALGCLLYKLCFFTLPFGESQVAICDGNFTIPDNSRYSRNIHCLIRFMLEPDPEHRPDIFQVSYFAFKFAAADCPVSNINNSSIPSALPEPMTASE

SMILES	IC50 [1]	AAK1:GAK pSENs Selectivity [2]	IC50 [3]
CC1(OC(=O)N2CCN(c3ccn4ncc(-c5cccnc5OCC5COC5)c4n3)CC2)COC1 [Compound I-20]	> 1500 nM	D (D: 0.16-1.00)	
O=C(O[C@H]1CO[C@H]2OCC[C@H]21)N1CCN(c2ccn3ncc(-c4cnccn4)c3n2)CC1 [Compound I-66, [(3aS,4R,6aR)-2,3,3a, 4,5,6a-hexahydrofuro[2,3-b]furan-4-yl]-4-(3-pyrazin-2-ylpyrazolo[1,5-a]pyrimidin-5-yl)piperazine-1-carboxylate]	> 1500 nM	D (D: 0.16-1.00)	
[2H]C([2H])([2H])N1C[C@@H](OC(=O)N2CCN(c3ccn4ncc(-c5cccnc5OC5CC5)c4n3)CC2)CC1=O [Compound I-113, [(3S)-5-oxo-1-(trideuteriomethyl)pyrrolidin-3-yl]4-[3-[2-(cyclopropoxy)-3-pyridyl]pyrazolo[1,5-a]pyrimidin-5-yl]piperazine-1-carboxylate]		A (A: ≤0.015)	> 1500 nM
[2H]C1([2H])N(C(=O)O[C@@H]2CNC(=O)C2)C([2H])([2H])C([2H])([2H])N(c2ccn3ncc(-c4cccnc4OC4CC4)c3n2)C1([2H])[2H] [Compound I-72, [(3S)-5-oxopyrrolidin-3-yl]4-[3-[2-(cyclopropoxy)-3-pyridyl]pyrazolo[1,5-a]pyrimidin-5-yl]-2,2,3,3,5,5,6,6-octadeuterio-piperazine-1-carboxylate]		A (A: ≤0.015)	> 1500 nM
CC(C)(C)OC(=O)N1CC(Oc2ncccc2-c2cnn3ccc(N4CCN(C(=O)O[C@@H]5CNC(=O)C5)CC4)nc23)C1 [Compound I-42, [(3S)-5-Oxopyrrolidin-3-yl]4-[3-[2-(1-tert-butoxycarbonylazetidin-3-yl)oxy-3-pyridyl]pyrazolo[1,5-a]pyrimidin-5-yl]piperazine-1-carboxylate]		A (A: ≤0.015)	> 1500 nM

Now from value to molecule, other results behind:

IC50 [1]	AAK1:GAK pSENs Selectivity [2]	SMILES	IC50 [3]
> 1500 nM		O=C1C[C@H](OC(=O)N2CCN(c3ccn4ncc(-c5cccnc5NC5CNC5)c4n3)CC2)CN1 [Compound I-49, (S)-5-oxopyrrolidin-3-yl 4-(3-(2-(azetidin-3-ylamino)pyridin-3-yl)pyrazolo[1,5a]pyrimidin-5-yl)piperazine-1-carboxylate]	
> 1500 nM	E (E: >1.00)	O=C1C[C@H](OC(=O)N2CCN(c3ccn4ncc(-c5cccnc5NC5CCC5)c4n3)CC2)CN1 [Compound I-46, [(3S)-5-oxopyrrolidin-3-yl]4-[3-[2-(cyclobutylamino)-3-pyridyl]pyrazolo[1,5-a]pyrimidin-5-yl]piperazine-1-carboxylate]	
> 1500 nM	B (B: 0.016-0.075)	CC(C)Oc1ncccc1-c1cnn2ccc(N3CCN(C(=O)O[C@@]4(C)CCNC4)CC3)nc12 [Compound I-21, [(3S)-3-Methylpyrrolidin-3-yl]4-[3-(2-isopropoxy-3-pyridyl)pyrazolo[1,5-a]pyrimidin-5-yl]piperazine-1-carboxylate]	
> 1500 nM	C (C: 0.076-0.15)	C[C@@]1(OC(=O)N[C@H]2CCN(c3ccn4ncc(-c5cccnc5OC5CC5)c4n3)C2)CCNC1 [Compound I-57, (R)-3-methylpyrrolidin-3-yl ((S)-1-(3-(2-cyclopropoxypyridin-3-yl)pyrazolo[1,5-a]pyrimidin-5-yl)pyrrolidin-3-yl)carbamate]	
	A (A: ≤0.015)	CN1C[C@@H](OC(=O)N2CCN(c3ccn4ncc(-c5cc(F)cnc5OC5CC5)c4n3)CC2)CC1=O [Compound I-86]	> 1500 nM
	A (A: ≤0.015)	COC(=O)N1CC(Oc2ncccc2-c2cnn3ccc(N4CCN(C(=O)O[C@@H]5CC(=O)N(C)C5)CC4)nc23)C1 [Compound I-83, [(3R)-1-methyl-5-oxo-pyrrolidin-3-yl]4-[3-[2-(1-methoxycarbonylazetidin-3-yl)oxy-3-pyridyl]pyrazolo[1,5-a]pyrimidin-5-yl]piperazine-1-carboxylate]	> 1500 nM

From patent US20250270222A1, “AP2 ASSOCIATED KINASE 1 INHIBITORS AND USES THEREOF” (Satellos Bioscience Inc., priority 2023, published 2025)
